From patent publication US20190185518A9, “WARHEAD-CONTAINING PEPTIDOMIMETIC MACROCYCLES AS MODULATORS OF BFL-1” (AILERON Therapeutics, Inc., priority 2017, published 2019)
Read-outs that look alike come from different tables or passages of the source. Positions of bridges follow the written chain, without caps; N, C: chain ends. Non-standard residues stand in square brackets, D forms with d. Residues, ends and D or L forms follow the SMILES beside them. ξ: configuration not given here. hCha = N[C@@H](CCC1CCCCC1)C(=O)O; hPhe = N[C@@H](CCc1ccccc1)C(=O)O; R8 = C=CCCCCCC[C@@](C)(N)C(=O)O; ξαMeD = CC(N)(CC(=O)O)C(=O)O; S5 = C=CCCC[C@](C)(N)C(=O)O; Aib = CC(C)(N)C(=O)O

Key:
[1] = test system: Mcl-1, Bcl-xL, Bcl-2; assay: BCL-2 family selectivity profile; type: binding
From the text: The binding spectrum of stapled BIM BH3 peptides were tuned for BCL-2 family selectivity. […] ABT-199 is venetoclax, and † represents values reported in the literature.

[2] = target: Mcl-1 (Homo sapiens, UniProt Q07820); assay: Ki determination for Mcl-1 (BCL-2 family binding spectrum)
In short: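 Competitive fluorescence polarization assay in which compounds displace a fluoresceinated peptidomimetic macrocycle tracer from Mcl-1. Affinity constants were obtained by nonlinear regression.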

[3] = target: Bcl-xL (Homo sapiens, UniProt Q07817); assay: Ki determination for Bcl-xL (BCL-2 family binding spectrum)
In short: (§1)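 Competitive fluorescence polarization: compounds (1 nM–1 mM) with 25 nM fluoresceinated peptidomimetic macrocycle and 50 nM protein in 140 mM NaCl, 50 mM Tris-HCl pH 7.4, 30 min at room temperature. Constants from nonlinear regression.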

[4] = target: Bcl-2 (Homo sapiens, UniProt P10415); assay: Ki determination for Bcl-2 (BCL-2 family binding spectrum)
In short: as §1

Chain of Mcl-1 (Q07820 whole entry, species assumed): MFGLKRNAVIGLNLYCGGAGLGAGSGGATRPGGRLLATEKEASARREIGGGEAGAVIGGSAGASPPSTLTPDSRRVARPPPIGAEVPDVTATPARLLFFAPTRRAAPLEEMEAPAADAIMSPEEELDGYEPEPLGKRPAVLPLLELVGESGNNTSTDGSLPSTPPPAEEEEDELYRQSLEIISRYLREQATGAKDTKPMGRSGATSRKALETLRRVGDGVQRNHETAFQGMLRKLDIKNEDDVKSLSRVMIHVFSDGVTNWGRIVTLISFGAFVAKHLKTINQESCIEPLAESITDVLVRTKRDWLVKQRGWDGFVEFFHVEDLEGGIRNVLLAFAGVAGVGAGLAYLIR
Chain of Bcl-xL (Q07817 whole entry, species assumed): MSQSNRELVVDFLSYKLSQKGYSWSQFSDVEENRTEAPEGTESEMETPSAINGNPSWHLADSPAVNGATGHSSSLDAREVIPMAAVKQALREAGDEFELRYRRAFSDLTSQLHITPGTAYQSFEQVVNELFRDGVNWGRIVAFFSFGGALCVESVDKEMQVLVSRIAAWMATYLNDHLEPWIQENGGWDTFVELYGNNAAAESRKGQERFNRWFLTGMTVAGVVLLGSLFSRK
Chain of Bcl-2 (P10415 whole entry, species assumed): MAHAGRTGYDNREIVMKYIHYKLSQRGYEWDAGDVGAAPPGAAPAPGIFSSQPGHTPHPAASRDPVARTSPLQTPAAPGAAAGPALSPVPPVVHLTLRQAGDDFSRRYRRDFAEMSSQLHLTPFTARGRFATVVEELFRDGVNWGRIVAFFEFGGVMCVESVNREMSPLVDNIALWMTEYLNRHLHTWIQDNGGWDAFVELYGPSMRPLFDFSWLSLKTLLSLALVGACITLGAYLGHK

SMILES | Profile ([1]; TABLE 6) | Ki ([3]; read-out: Ki BCL-XL) [µM] | Ki ([2]; read-out: Ki MCL-1) [µM] | Ki ([4]; read-out: Ki BCL-2) [µM] | other results
CN(C)CC[C@H](CSc1ccccc1)Nc1ccc(S(=O)(=O)NC(=O)c2ccc(N3CCN(Cc4ccccc4-c4ccc(Cl)cc4)CC3)cc2)cc1[N+](=O)[O-] [ABT-737, reference compound] |  |  |  |  | Profile ([1]; TABLE 8): Bcl-xL/Bcl-2 selective
CC[C@H](C)[C@H](NC(C)=O)C(=O)N[C@@H](Cc1c[nH]c2ccccc12)C(=O)N[C@H](C(=O)N[C@@H](C)C(=O)N[C@@H](CCC(N)=O)C(=O)N[C@@H](C)C(=O)N[C@@H](CC(C)C)C(=O)N[C@@H](CCCNC(=N)N)C(=O)N[C@]1(C)CCCCCCC=CCCC[C@@](C)(C(=O)N[C@@H](Cc2ccc(O)cc2)C(=O)N[C@@H](Cc2ccc(O)cc2)C(=O)N[C@@H](C)C(=O)N[C@@H](CCCNC(=N)N)C(=O)N[C@@H](CCCNC(=N)N)C(N)=O)NC(=O)[C@H](CC(N)=O)NC(=O)[C@H](Cc2ccccc2)NC(=O)[C@H](CCC(=O)O)NC(=O)[C@H](CC(=O)O)NC(=O)CNC(=O)[C@H]([C@@H](C)CC)NC1=O)[C@@H](C)CC [Peptide #15] (Ac-IWIAQALR[R8]IGDEFN[S5]YYARR-NH2; staple 9-16) |  |  |  |  | Profile ([1]; TABLE 8): Pan-selective; Ki ([2]; TABLE 8, read-out: Mcl-1 Ki): 0.0106 µM
CC[C@H](C)[C@H](NC(C)=O)C(=O)N[C@@H](Cc1c[nH]c2ccccc12)C(=O)N[C@H](C(=O)N[C@@H](C)C(=O)N[C@@H](CCC(N)=O)C(=O)N[C@@H](C)C(=O)N[C@@H](CC(C)C)C(=O)N[C@@H](CCCNC(=N)N)C(=O)N[C@]1(C)CCCCCCC=CCCC[C@@](C)(C(=O)N[C@@H](Cc2ccc(O)cc2)C(=O)N[C@@H](Cc2ccc(O)cc2)C(=O)N[C@@H](C)C(N)=O)NC(=O)[C@H](CC(N)=O)NC(=O)[C@H](C)NC(=O)[C@H](CCC(N)=O)NC(=O)[C@H](CC(=O)O)NC(=O)CNC(=O)[C@H]([C@@H](C)CC)NC1=O)[C@@H](C)CC [compound 8] (Ac-IWIAQALR[R8]IGDQAN[S5]YYA-NH2; staple 9-16) | Mcl-1 selective |  |  |  | Ki ([2]; TABLE 6, read-out: Mcl-1 Ki): 0.0014 µM
CC[C@H](C)[C@H](NC(C)=O)C(=O)N[C@@H](Cc1c[nH]c2ccccc12)C(=O)N[C@H](C(=O)N[C@@H](C)C(=O)N[C@@H](CCC(N)=O)C(=O)N[C@@H](C)C(=O)N[C@@H](CC(C)C)C(=O)N[C@@H](CCCNC(=N)N)C(=O)N[C@]1(C)CCCCCCC=CCCC[C@@](C)(C(=O)N[C@@H](Cc2ccc(O)cc2)C(=O)N[C@@H](Cc2ccc(O)cc2)C(=O)N[C@@H](C)C(N)=O)NC(=O)[C@H](CC(N)=O)NC(=O)[C@H](Cc2ccccc2)NC(=O)[C@H](CCC(N)=O)NC(=O)[C@H](CC(=O)O)NC(=O)[C@H](C)NC(=O)[C@H]([C@@H](C)CC)NC1=O)[C@@H](C)CC [compound 9] (Ac-IWIAQALR[R8]IADQFN[S5]YYA-NH2; staple 9-16) | Bcl-xL/Bcl-2 selective |  |  |  | Ki ([3]; TABLE 6, read-out: Bcl-xL Ki): 0.0077 µM; Ki ([4]; TABLE 6, read-out: Bcl-2 Ki): 0.0256 µM
CC[C@H](C)[C@H](NC(C)=O)C(=O)N[C@@H](Cc1c[nH]c2ccccc12)C(=O)N[C@H](C(=O)N[C@@H](C)C(=O)N[C@@H](CCC(N)=O)C(=O)N[C@@H](C)C(=O)N[C@@H](CC(C)C)C(=O)N[C@@H](C)C(=O)N[C@]1(C)CCCCCCC=CCCC[C@@](C)(C(=O)N[C@@H](Cc2ccc(O)cc2)C(=O)N[C@@H](Cc2ccc(O)cc2)C(=O)N[C@@H](C)C(N)=O)NC(=O)[C@H](CC(N)=O)NC(=O)[C@H](Cc2ccccc2)NC(=O)[C@H](C)NC(=O)[C@H](CC(=O)O)NC(=O)CNC(=O)[C@H]([C@@H](C)CC)NC1=O)[C@@H](C)CC [compound 11] (Ac-IWIAQALA[R8]IGDAFN[S5]YYA-NH2; staple 9-16) | negative control |  |  |  | Ki ([3]; TABLE 6, read-out: Bcl-xL Ki): 0.386 µM; Ki ([2]; TABLE 6, read-out: Mcl-1 Ki): 0.0738 µM
CC[C@H](C)[C@H](NC(C)=O)C(=O)N[C@@H](Cc1c[nH]c2ccccc12)C(=O)N[C@H](C(=O)N[C@@H](C)C(=O)N[C@@H](CCC(N)=O)C(=O)N[C@@H](C)C(=O)N[C@@H](CC(C)C)C(=O)N[C@@H](CCCNC(=N)N)C(=O)N[C@]1(C)CCCCCCC=CCCC[C@@](C)(C(=O)N[C@@H](Cc2ccc(O)cc2)C(=O)N[C@@H](Cc2ccc(O)cc2)C(=O)N[C@@H](C)C(N)=O)NC(=O)[C@H](CC(N)=O)NC(=O)[C@H](Cc2ccccc2)NC(=O)[C@H](C)NC(=O)[C@H](CC(N)=O)NC(=O)CNC(=O)[C@H]([C@@H](C)CC)NC1=O)[C@@H](C)CC [compound 12] (Ac-IWIAQALR[R8]IGNAFN[S5]YYA-NH2; staple 9-16) | negative control |  |  |  | 
CC[C@H](C)[C@H](NC(C)=O)C(=O)N[C@@H](Cc1c[nH]c2ccccc12)C(=O)N[C@H](C(=O)N[C@@H](C)C(=O)N[C@@H](CCC(N)=O)C(=O)N[C@@H](C)C(=O)N[C@@H](C)C(=O)N[C@@H](CCCNC(=N)N)C(=O)N[C@]1(C)CCCCCCC=CCCC[C@@](C)(C(=O)N[C@@H](Cc2ccc(O)cc2)C(=O)N[C@@H](Cc2ccc(O)cc2)C(=O)N[C@@H](C)C(N)=O)NC(=O)[C@H](CC(N)=O)NC(=O)[C@H](Cc2ccccc2)NC(=O)[C@H](C)NC(=O)[C@H](CC(=O)O)NC(=O)CNC(=O)[C@H]([C@@H](C)CC)NC1=O)[C@@H](C)CC [compound 13] (Ac-IWIAQAAR[R8]IGDAFN[S5]YYA-NH2; staple 9-16) | negative control |  |  |  | 
CC[C@H](C)[C@H](NC(C)=O)C(=O)N[C@@H](Cc1c[nH]c2ccccc12)C(=O)N[C@H](C(=O)N[C@@H](C)C(=O)N[C@@H](CCC(N)=O)C(=O)N[C@@H](C)C(=O)N[C@@H](C)C(=O)N[C@@H](CCCNC(=N)N)C(=O)N[C@]1(C)CCCCCCC=CCCC[C@@](C)(C(=O)N[C@@H](Cc2ccc(O)cc2)C(=O)N[C@@H](Cc2ccc(O)cc2)C(=O)N[C@@H](C)C(N)=O)NC(=O)[C@H](CC(N)=O)NC(=O)[C@H](Cc2ccccc2)NC(=O)[C@H](C)NC(=O)[C@H](CC(=O)O)NC(=O)CNC(=O)[C@H]([C@@H](C)CC)NC1=O)[C@@H](C)CC [compound 1675] (Ac-IWIAQAAR[R8]IGDAFN[S5]YYA-NH2; staple 9-16) |  | > 1 | > 1 | > 1 | 
CC[C@H](C)[C@H](NC(C)=O)C(=O)N[C@@H](Cc1c[nH]c2ccccc12)C(=O)N[C@H](C(=O)N[C@@H](C)C(=O)N[C@@H](CCC(N)=O)C(=O)N[C@@H](C)C(=O)N[C@@H](CCC1CCCCC1)C(=O)N[C@@H](CCCNC(=N)N)C(=O)N[C@]1(C)CCCCCCC=CCCC[C@@](C)(C(=O)N[C@@H](Cc2ccc(O)cc2)C(=O)N[C@@H](Cc2ccc(O)cc2)C(=O)N[C@@H](C)C(N)=O)NC(=O)[C@H](CC(N)=O)NC(=O)[C@H](Cc2ccccc2)NC(=O)[C@H](C)NC(=O)[C@H](CC(=O)O)NC(=O)CNC(=O)[C@H]([C@@H](C)CC)NC1=O)[C@@H](C)CC [compound 1690] (Ac-IWIAQA[hCha]R[R8]IGDAFN[S5]YYA-NH2; staple 9-16) |  | > 1 | 0.0038 | > 1 | 
CC[C@H](C)[C@H](NC(C)=O)C(=O)N[C@@H](Cc1c[nH]c2ccccc12)C(=O)N[C@H](C(=O)N[C@@H](C)C(=O)N[C@@H](CCC(N)=O)C(=O)N[C@@H](C)C(=O)N[C@@H](CCc1ccccc1)C(=O)N[C@@H](CCCNC(=N)N)C(=O)N[C@]1(C)CCCCCCC=CCCC[C@@](C)(C(=O)N[C@@H](Cc2ccc(O)cc2)C(=O)N[C@@H](Cc2ccc(O)cc2)C(=O)N[C@@H](C)C(N)=O)NC(=O)[C@H](CC(N)=O)NC(=O)[C@H](Cc2ccccc2)NC(=O)[C@H](C)NC(=O)[C@H](CC(=O)O)NC(=O)CNC(=O)[C@H]([C@@H](C)CC)NC1=O)[C@@H](C)CC [compound 1692] (Ac-IWIAQA[hPhe]R[R8]IGDAFN[S5]YYA-NH2; staple 9-16) |  | > 1 | 0.0075 | > 1 | 
CC[C@H](C)[C@H](NC(C)=O)C(=O)N[C@@H](Cc1c[nH]c2ccccc12)C(=O)N[C@H](C(=O)NC(C)(C)C(=O)N[C@@H](CCC(N)=O)C(=O)N[C@@H](C)C(=O)N[C@@H](CC(C)C)C(=O)N[C@@H](CCCNC(=N)N)C(=O)N[C@]1(C)CCCCCCC=CCCC[C@@](C)(C(=O)N[C@@H](Cc2ccc(O)cc2)C(=O)N[C@@H](Cc2ccc(O)cc2)C(=O)N[C@@H](C)C(N)=O)NC(=O)[C@H](CC(N)=O)NC(=O)[C@H](Cc2ccccc2)NC(=O)[C@H](C)NC(=O)C(C)(CC(=O)O)NC(=O)CNC(=O)[C@H]([C@@H](C)CC)NC1=O)[C@@H](C)CC (stereo partly shown) [compound 1707] (Ac-IWI[Aib]QALR[R8]IG[ξαMeD]AFN[S5]YYA-NH2; staple 9-16) |  | > 1 | > 1 | > 1 | 
CC[C@H](C)[C@H](NC(C)=O)C(=O)N[C@@H](Cc1c[nH]c2ccccc12)C(=O)N[C@H](C(=O)N[C@@H](C)C(=O)N[C@@H](CCC(N)=O)C(=O)N[C@@H](C)C(=O)N[C@@H](CC(C)C)C(=O)N[C@@H](CCCNC(=N)N)C(=O)N[C@]1(C)CCCCCCC=CCCC[C@@](C)(C(=O)N[C@@H](Cc2ccc(O)cc2)C(=O)N[C@@H](Cc2c[nH]c3ccccc23)C(=O)N[C@@H](C)C(N)=O)NC(=O)[C@H](CC(N)=O)NC(=O)[C@H](Cc2ccccc2)NC(=O)[C@H](C)NC(=O)[C@H](CC(=O)O)NC(=O)CNC(=O)[C@H]([C@@H](C)CC)NC1=O)[C@@H](C)CC [compound 1758] (Ac-IWIAQALR[R8]IGDAFN[S5]YWA-NH2; staple 9-16) |  | 0.0154 | 0.0039 | 0.0235 | 
CC[C@H](C)[C@H](NC(C)=O)C(=O)N[C@@H](Cc1c[nH]c2ccccc12)C(=O)N[C@H](C(=O)N[C@@H](C)C(=O)N[C@@H](CCC(N)=O)C(=O)N[C@@H](C)C(=O)N[C@@H](CC(C)C)C(=O)N[C@@H](CCCNC(N)=O)C(=O)N[C@]1(C)CCCCCCC=CCCC[C@@](C)(C(=O)N[C@@H](Cc2ccc(O)cc2)C(=O)N[C@@H](Cc2ccc(O)cc2)C(=O)N[C@@H](C)C(N)=O)NC(=O)[C@H](CC(N)=O)NC(=O)[C@H](Cc2ccccc2)NC(=O)[C@H](C)NC(=O)[C@H](CC(N)=O)NC(=O)CNC(=O)[C@H]([C@@H](C)CC)NC1=O)[C@@H](C)CC [compound 1772] |  | > 1 | > 1 | > 1 | 
